Data: the Kinase Knowledgebase extract (Sharma et al. 2016)

Key:
Assay in all cases: Enzyme Assay
PIK3CA (human) = PIK3CA (human) (UniProt P42336)
PIK3CD (Human) = PIK3CD (Human) (UniProt O00329)
PIK3CB (Human) = PIK3CB (Human) (UniProt P42338)
PIK3CG (human) = PIK3CG (human) (UniProt P48736)
Chain of PIK3CG (human) (P48736 whole entry, looked up): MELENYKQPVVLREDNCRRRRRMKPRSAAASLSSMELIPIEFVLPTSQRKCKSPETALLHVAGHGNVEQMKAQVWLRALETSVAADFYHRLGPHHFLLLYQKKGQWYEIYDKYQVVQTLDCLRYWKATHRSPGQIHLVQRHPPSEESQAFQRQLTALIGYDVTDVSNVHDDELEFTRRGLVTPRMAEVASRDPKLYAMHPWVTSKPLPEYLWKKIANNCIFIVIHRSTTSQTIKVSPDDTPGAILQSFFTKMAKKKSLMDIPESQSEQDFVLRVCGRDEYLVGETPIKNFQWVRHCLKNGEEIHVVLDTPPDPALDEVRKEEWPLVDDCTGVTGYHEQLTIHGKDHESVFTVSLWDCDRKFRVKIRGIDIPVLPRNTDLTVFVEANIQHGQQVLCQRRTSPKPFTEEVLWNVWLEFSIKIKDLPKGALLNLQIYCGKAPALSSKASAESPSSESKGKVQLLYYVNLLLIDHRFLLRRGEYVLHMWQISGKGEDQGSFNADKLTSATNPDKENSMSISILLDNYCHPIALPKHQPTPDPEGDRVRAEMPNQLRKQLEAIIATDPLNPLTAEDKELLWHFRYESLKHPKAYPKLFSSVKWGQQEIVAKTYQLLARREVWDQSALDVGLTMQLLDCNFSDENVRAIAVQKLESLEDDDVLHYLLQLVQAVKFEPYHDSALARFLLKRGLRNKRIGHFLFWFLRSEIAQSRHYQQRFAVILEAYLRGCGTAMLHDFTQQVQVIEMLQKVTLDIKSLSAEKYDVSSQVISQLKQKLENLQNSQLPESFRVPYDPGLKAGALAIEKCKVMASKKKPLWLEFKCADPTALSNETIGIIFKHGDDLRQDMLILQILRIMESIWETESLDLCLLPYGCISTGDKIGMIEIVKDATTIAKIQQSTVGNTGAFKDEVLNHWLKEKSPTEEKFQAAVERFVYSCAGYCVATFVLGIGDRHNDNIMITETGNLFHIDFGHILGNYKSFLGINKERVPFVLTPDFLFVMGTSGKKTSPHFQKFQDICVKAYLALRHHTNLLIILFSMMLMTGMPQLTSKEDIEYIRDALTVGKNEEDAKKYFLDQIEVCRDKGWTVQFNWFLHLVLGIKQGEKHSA

Chain of PIK3CD (Human) (O00329 whole entry, looked up): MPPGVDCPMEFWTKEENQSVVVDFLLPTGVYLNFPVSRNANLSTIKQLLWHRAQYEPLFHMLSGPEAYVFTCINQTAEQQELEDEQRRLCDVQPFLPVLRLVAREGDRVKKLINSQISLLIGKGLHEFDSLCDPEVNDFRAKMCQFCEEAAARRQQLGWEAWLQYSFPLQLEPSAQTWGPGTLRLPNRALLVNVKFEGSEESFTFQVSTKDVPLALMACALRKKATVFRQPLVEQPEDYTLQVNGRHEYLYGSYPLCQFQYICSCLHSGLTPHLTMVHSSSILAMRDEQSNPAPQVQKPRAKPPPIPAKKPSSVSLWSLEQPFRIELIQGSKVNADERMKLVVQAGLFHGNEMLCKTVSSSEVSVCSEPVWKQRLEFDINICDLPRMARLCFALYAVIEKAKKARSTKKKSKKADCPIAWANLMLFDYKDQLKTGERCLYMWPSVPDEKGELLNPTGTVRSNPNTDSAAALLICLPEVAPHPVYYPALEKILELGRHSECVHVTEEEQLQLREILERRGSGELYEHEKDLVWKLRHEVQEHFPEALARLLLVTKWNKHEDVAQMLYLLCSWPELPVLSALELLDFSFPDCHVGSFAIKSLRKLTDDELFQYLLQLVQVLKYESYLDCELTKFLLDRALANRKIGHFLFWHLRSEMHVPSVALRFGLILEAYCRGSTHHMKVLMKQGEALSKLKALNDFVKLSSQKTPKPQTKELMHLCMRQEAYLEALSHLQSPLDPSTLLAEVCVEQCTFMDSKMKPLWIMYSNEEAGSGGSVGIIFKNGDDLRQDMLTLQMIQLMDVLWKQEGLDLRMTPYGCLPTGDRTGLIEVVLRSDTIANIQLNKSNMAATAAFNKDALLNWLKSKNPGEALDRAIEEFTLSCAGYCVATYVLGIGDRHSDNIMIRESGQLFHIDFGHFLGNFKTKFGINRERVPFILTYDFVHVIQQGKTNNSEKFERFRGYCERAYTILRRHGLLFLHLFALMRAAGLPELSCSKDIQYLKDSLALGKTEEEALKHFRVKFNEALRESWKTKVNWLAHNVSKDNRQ
Chain of PIK3CA (human) (P42336 whole entry, looked up): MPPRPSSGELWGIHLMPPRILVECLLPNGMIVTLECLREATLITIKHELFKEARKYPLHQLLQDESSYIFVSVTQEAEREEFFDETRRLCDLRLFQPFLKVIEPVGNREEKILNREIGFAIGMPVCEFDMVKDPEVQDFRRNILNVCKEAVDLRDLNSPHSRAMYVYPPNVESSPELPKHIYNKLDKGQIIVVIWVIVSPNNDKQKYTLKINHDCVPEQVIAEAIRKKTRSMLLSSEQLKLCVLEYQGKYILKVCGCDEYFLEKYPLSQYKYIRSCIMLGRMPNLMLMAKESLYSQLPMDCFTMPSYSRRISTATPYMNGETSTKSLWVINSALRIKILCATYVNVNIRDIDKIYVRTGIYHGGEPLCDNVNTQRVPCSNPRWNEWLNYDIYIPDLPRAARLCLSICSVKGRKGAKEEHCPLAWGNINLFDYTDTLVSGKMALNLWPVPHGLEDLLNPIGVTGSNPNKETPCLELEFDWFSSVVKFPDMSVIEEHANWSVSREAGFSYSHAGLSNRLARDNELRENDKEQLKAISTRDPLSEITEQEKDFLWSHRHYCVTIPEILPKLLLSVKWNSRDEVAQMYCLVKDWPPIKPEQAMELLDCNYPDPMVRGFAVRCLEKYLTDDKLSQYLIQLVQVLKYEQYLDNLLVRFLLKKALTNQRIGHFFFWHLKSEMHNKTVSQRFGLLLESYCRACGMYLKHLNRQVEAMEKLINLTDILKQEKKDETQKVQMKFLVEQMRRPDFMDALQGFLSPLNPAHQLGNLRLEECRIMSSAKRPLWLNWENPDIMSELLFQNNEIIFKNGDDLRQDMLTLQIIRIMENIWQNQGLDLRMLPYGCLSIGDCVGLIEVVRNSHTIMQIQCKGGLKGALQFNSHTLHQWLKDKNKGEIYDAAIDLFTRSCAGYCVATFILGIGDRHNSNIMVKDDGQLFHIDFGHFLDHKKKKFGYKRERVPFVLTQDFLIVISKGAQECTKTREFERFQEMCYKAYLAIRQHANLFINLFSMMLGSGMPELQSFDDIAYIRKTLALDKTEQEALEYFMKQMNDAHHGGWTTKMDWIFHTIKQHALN
Chain of PIK3CB (Human) (P42338 whole entry, looked up): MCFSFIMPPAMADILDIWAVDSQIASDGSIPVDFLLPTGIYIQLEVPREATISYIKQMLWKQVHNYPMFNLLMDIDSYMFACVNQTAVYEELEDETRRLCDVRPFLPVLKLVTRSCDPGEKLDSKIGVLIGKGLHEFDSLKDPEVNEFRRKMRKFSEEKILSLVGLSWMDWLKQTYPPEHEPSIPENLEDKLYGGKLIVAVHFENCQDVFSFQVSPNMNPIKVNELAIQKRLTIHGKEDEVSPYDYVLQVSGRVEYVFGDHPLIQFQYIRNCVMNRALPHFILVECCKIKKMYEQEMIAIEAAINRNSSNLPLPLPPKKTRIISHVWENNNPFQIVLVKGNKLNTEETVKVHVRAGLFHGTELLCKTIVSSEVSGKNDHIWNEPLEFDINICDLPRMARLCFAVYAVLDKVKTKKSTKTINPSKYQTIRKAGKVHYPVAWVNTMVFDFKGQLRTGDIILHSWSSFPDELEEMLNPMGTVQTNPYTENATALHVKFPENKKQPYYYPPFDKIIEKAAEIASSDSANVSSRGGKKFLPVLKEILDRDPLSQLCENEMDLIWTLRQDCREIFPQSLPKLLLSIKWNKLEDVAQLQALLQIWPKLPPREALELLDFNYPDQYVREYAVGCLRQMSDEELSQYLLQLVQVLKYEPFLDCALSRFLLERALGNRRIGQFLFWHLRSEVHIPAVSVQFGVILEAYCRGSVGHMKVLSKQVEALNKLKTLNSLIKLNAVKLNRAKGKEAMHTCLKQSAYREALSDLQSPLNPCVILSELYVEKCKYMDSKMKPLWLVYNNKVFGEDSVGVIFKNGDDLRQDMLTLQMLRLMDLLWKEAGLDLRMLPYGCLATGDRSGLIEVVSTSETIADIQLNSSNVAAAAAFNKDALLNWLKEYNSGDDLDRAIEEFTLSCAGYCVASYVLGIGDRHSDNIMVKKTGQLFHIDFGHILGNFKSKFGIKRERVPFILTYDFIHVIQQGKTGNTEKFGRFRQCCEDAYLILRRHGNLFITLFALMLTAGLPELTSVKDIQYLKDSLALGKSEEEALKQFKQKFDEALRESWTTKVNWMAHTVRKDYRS

SMILES | IC50 (PIK3CA (human)) [µM] | IC50 (PIK3CD (Human)) [µM] | also measured
CN(C)CCN(C)C(=O)c1ccc(NC(=O)Nc2ccc(-c3nc(N4CCOCC4)c4ccn(CC(F)(F)F)c4n3)cc2)cc1 | 0.0024 |  | 
CN(C)CCCNC(=O)c1cn2cc(-c3cccc4[nH]ncc34)nc(N3CCOCC3)c2n1 | 0.035 |  | 
Cc1c(OCCN2CCN(C)CC2)ccc2c(=O)nc(N3CCOCC3)oc12 | ≥ 100 |  | 
CCOC(=O)c1ccc(-c2csc3c(=O)cc(N4CCOCC4)oc23)cc1 |  | 0.012 | 
N#Cc1c(N2CCOCC2)sc(-c2nc[nH]n2)c1-c1ccc(Cl)cc1Cl | 0.00035 |  | 
CC(C)c1nc2ccccc2n1-c1nc(N2CCOCC2)c2nc(OC3CN(C4CCS(=O)(=O)CC4)C3)n(C)c2n1 |  |  | Ki (PIK3CD (Human)): 0.0004 µM
CS(=O)(=O)N1CCN(Cc2cc3nc(-c4cnc(N)nc4)nc(N4CCOCC4)c3s2)CC1 |  | 0.016 | IC50 (PIK3CB (Human)): 0.012 µM
Cc1c(Cl)cccc1Cn1c(SCC(=O)O)nc(=O)c2sc(N3CCOCC3)nc21 |  | 0.003 | 
O=C(c1ccccc1)c1ccc(N2CCOCC2)cc1O |  |  | IC50 (PIK3CB (Human)): 3.7 µM
CC1(C)CC(=O)c2sc(N3CCOc4ccccc43)nc2C1 |  | 0.83 | IC50 (PIK3CG (human)): 0.61 µM
